Measurements as given in ChEMBL document CHEMBL1148026, “Oxadiazole mannich bases: synthesis and antimycobacterial activity” (Bioorg Med Chem Lett, 2007).
Converted amounts (≈) assume the structure as drawn.

Experiments:
[1] = system: Mycobacterium tuberculosis; assay: Antimycobacterial activity against Mycobacterium tuberculosis H37Rv by agar dilution method using double dilution technique; type: functional
Vero = assay: Toxicity against Vero cells at 62.5 ug/ml after 72 hrs by MTT assay; type: cell-based; conditions: chlorocebus sabaeus

Row | SMILES | MIC [1] [µM] | Activity (Vero)
1 | O=S(=O)(c1ccc(NC(c2ccccc2)n2nc(COc3cccc4ccccc34)oc2=S)cc1)c1ccc(NC(c2ccccc2)n2nc(COc3cccc4ccccc34)oc2=S)cc1 (centres undefined) | 0.96 (≈ 0.903 µg/mL) | Non-toxic
2 | O=S(=O)(c1ccc(NC(c2ccccc2)n2nc(Cc3ccccc3)oc2=S)cc1)c1ccc(NC(c2ccccc2)n2nc(Cc3ccccc3)oc2=S)cc1 (centres undefined) | 1.29 (≈ 1.04 µg/mL) | Non-toxic
3 | O=S(=O)(c1ccc(NC(Cc2ccco2)n2nc(COc3ccc4ccccc4c3)oc2=S)cc1)c1ccc(NC(Cc2ccco2)n2nc(COc3ccc4ccccc4c3)oc2=S)cc1 (centres undefined) | 0.1 (≈ 0.0949 µg/mL) | Non-toxic
4 | O=S(=O)(c1ccc(NC(Cc2ccco2)n2nc(COc3ccccc3)oc2=S)cc1)c1ccc(NC(Cc2ccco2)n2nc(COc3ccccc3)oc2=S)cc1 (centres undefined) | 0.14 (≈ 0.119 µg/mL) | Non-toxic
5 | O=[N+]([O-])c1ccc(-c2nn(C(Nc3ccc(S(=O)(=O)c4ccc(NC(c5ccccc5)n5nc(-c6ccc([N+](=O)[O-])cc6)oc5=S)cc4)cc3)c3ccccc3)c(=S)o2)cc1 (centres undefined) | 1.94 (≈ 1.69 µg/mL) | Non-toxic
6 | O=S(=O)(c1ccc(NC(c2ccccc2)n2nc(-c3ccc(Nc4ccccc4)cc3)oc2=S)cc1)c1ccc(NC(c2ccccc2)n2nc(-c3ccc(Nc4ccccc4)cc3)oc2=S)cc1 (centres undefined) | 1.65 (≈ 1.59 µg/mL) | Non-toxic
7 | O=[N+]([O-])c1ccc(-c2nn(C(Cc3ccco3)Nc3ccc(S(=O)(=O)c4ccc(NC(Cc5ccco5)n5nc(-c6ccc([N+](=O)[O-])cc6)oc5=S)cc4)cc3)c(=S)o2)cc1 (centres undefined) | 0.42 (≈ 0.369 µg/mL) | Non-toxic
8 | O=S(=O)(c1ccc(NC(Cc2ccco2)n2nc(-c3ccc(Nc4ccccc4)cc3)oc2=S)cc1)c1ccc(NC(Cc2ccco2)n2nc(-c3ccc(Nc4ccccc4)cc3)oc2=S)cc1 (centres undefined) | 0.66 (≈ 0.641 µg/mL) | Non-toxic
9 | O=S(=O)(c1ccc(NC(Cc2ccco2)n2nc(COc3cccc4ccccc34)oc2=S)cc1)c1ccc(NC(Cc2ccco2)n2nc(COc3cccc4ccccc34)oc2=S)cc1 (centres undefined) | 0.72 (≈ 0.683 µg/mL) | Non-toxic
10 | O=S(=O)(c1ccc(NC(Cc2ccco2)n2nc(Cc3ccccc3)oc2=S)cc1)c1ccc(NC(Cc2ccco2)n2nc(Cc3ccccc3)oc2=S)cc1 (centres undefined) | 0.24 (≈ 0.196 µg/mL) | Non-toxic
11 | O=S(=O)(c1ccc(NC(c2ccccc2)n2nc(-c3ccccc3)oc2=S)cc1)c1ccc(NC(c2ccccc2)n2nc(-c3ccccc3)oc2=S)cc1 (centres undefined) | 1.72 (≈ 1.34 µg/mL) | Non-toxic
12 | O=S(=O)(c1ccc(NC(c2ccccc2)n2nc(COc3ccccc3)oc2=S)cc1)c1ccc(NC(c2ccccc2)n2nc(COc3ccccc3)oc2=S)cc1 (centres undefined) | 0.98 (≈ 0.824 µg/mL) | Non-toxic
13 | O=S(=O)(c1ccc(NC(c2ccccc2)n2nc(COc3ccc4ccccc4c3)oc2=S)cc1)c1ccc(NC(c2ccccc2)n2nc(COc3ccc4ccccc4c3)oc2=S)cc1 (centres undefined) | 0.42 (≈ 0.395 µg/mL) | Non-toxic
14 | O=S(=O)(c1ccc(NC(Cc2ccco2)n2nc(-c3ccccc3)oc2=S)cc1)c1ccc(NC(Cc2ccco2)n2nc(-c3ccccc3)oc2=S)cc1 (centres undefined) | 0.94 (≈ 0.742 µg/mL) | Non-toxic
15 | NNC(=O)c1ccncc1 [ISONIAZID] | 0.73 (≈ 0.1 µg/mL) | –
